Measured values published in patent US20100056445A1, “ADIPONECTIN FOR THE TREATMENT AND DIAGNOSIS OF ALBUMINURIA” (THOMAS JEFFERSON UNIVERSITY, priority 2006, published 2010).
Entries after “also recorded” stand apart in the source; their conditions may differ.

Columns and labels:
podocyte monolayer = assay: Albumin permeability across differentiated podocyte monolayer (Transwell); format: cell-based, mouse; conditions: for Albumin permeability across podocyte monolayer: 1 mM; for Effect on the protective effect of adiponectin on podocyte permeability: ARA-A 1 mM pre-treatment prior to addition of adiponectin; for Permeability of albumin across a podocyte monolayer: adiponectin (globular or full length) 3 μg/ml, serum free, vs. control
Protocol: Podocyte cell culture: Conditionally immortalized mouse podocytes were kindly provided by Dr. Peter Mundel (Albert Einstein College of Medicine, Bronx, N.Y.) and were cultured as previously described (27). The cells harbor a temperature-sensitive variant of the SV40 large T antigen (tsA58) that is inducible by γ-interferon and stable at 33° C. but rapidly degraded at 37° C. (27). At 33° C., the large T antigen allows for cellular proliferation. The proliferating cells are maintained in collagen I—coated flasks in RPMI-1640 media supplemented with 10% FBS and 10 units/ml mouse recombinant γ-interferon. When the cells have reached confluence, they are passaged and allowed to differentiate at 37° C. for 8-10 days without γ-interferon in Dulbecco's modified Eagle's medium containing 5.5 mmol/l glucose and 5% FCS. For the permeability assay a modification of a previously published protocol (28) was adopted. Differentiated podocytes (0.2×10^6 podocytes/well) plated on collagen coated 24 well Transwell plates (Corning) were serum-starved ovenight when confluent. Cells were then modulated with globular adiponectin (PepROTech Inc.) with or without 1 mM adenosine 9-p-D-arabinofuranoside (ARA-A) (Sigma, St. Louis, Mo.), for 24 h. Cells were then washed twice with PBS supplemented with 1 mM MgCl2 and 1 mM CaCl2. The upper compartment was refilled with 0.25 ml RPMI 1640 alone and the lower compartment with 0.5 ml RPMI 1640 supplemented with 40 mg/ml BSA and incubated for 2 hour at 37° C. Total protein concentration in the upper compartment was determined using a Bio-Rad protein assay (Bio-Rad Laboratories, Hercules, Calif.).

[1] = test system: Adiponectin KO (Ad−/−) mice; assay: Urine albumin/creatinine ratio in treated adiponectin KO mice; format: in vivo, mouse; conditions: Ad−/− mice at 4 months of age
Protocol: Adiponectin administration and animal studies: The mice were treated with 25 μg of recombinant human globular domain adiponectin (gAd; PepROTech, Rocky Hill, N.J.) subcutaneously twice daily for 10 consecutive days. The control animals were given PBS alone. 24-hour urines from each mouse were collected twice: one week before the injections and on the last day of the injections. The urine albumin and creatinine were measured with a mouse Albuwell ELISA kit and a Creatinine Companion kit (Exocell, Philadelphia, Pa.) (25,26). The mice were sacrificed five hours after the final gAd injection under anesthesia. Portions of kidney cortex were fixed in buffered formalin and embedded in paraffin. A portion of kidney cortical tissue was cut into 1 mm^3 pieces and fixed in 2.5% glutaraldehyde
(§1) Interventional animal studies: The mice were treated with 25 μg of recombinant human globular domain adiponectin gAd (PepROTech, Rocky Hill, N.J.), administered 25 μg/mouse twice a day for 10 consecutive days or full-length adiponectin (fAd) was administered using an AAV vector (AAV2/8 CMV fAd virus 4×1011 GC/mouse for 10 days). A separate group of Ad−/− mice were treated with 5-aminoimidazole-4-carboxamide-1-beta-D-ribonucleoside (AICAR) with a single i.p. dose of 300 mg/kg. The control animals were given PBS alone or control AAV. 24-hour urines from each mouse were collected before treatment and on the last day of the treatment period. The urine albumin and creatinine were measured with a mouse Albuwell ELISA kit and a Creatinine Companion kit (Exocell, Philadelphia, Pa.) (26, 25). As an index of oxidant stress timed urine collections were also analyzed for hydrogen peroxide by Amplex red assay (Invitrogen/Molecular Probes, Carlsbad, Calif.) following the manufacturer's protocol. Portions of liver, muscle and kidney was snap-frozen in liquid nitrogen for RNA isolation. An additional aliquot of normal kidney was frozen in OCT for immunofluorescent staining. […]

Ad−/− mice = assay: Urinary hydrogen peroxide (Amplex red) in Ad−/− mice; format: in vivo, mouse; conditions: 4 month-old Ad−/− mice
Protocol: as §1

Nox4 = Nox4 protein in cultured podocytes (immunoblot, confocal); format: cell-based, mouse; conditions: AICAR; podocytes grown in high glucose (HG)

## NC(=O)c1ncn([C@@H]2O[C@H](CO)[C@@H](O)[C@H]2O)c1N [AICAR, 5-aminoimidazole-4-carboxamide-1-beta-D-ribonucleoside, reference compound]
Podocyte monolayer; AMPK activator AICAR
  Albumin permeability across podocyte monolayer: decreased
[1]; AICAR single i.p. dose of 300 mg/kg, 300 mg/kg
  Urine albumin/creatinine ratio (albuminuria): restored albuminuria; also recorded: significantly decreased urine albumin/creatinine to the control values seen in WT mice
Ad−/− mice; AICAR single i.p. dose of 300 mg/kg
  Urinary levels of hydrogen peroxide: reduced
Nox4
  Podocyte Nox4 protein: reduced Nox4 protein levels to a similar degree as adiponectin

## Nc1ncnc2c1ncn2[C@@H]1O[C@H](CO)[C@@H](O)[C@@H]1O [ARA-A, adenosine 9-p-D-arabinofuranoside]
Podocyte monolayer; AMPK inhibitor ARA-A alone
  Albumin permeability across podocyte monolayer: increased permeability to albumin
Podocyte monolayer; AMPK inhibitor ARA-A alone, listed as ARA
  Albumin permeability across podocyte monolayer: increased
Podocyte monolayer
  Effect on the protective effect of adiponectin on podocyte permeability: prevented the protective effects of adiponectin on podocyte permeability; also recorded: increased permeability to albumin; also recorded: blocked protective effect of adiponectin
Podocyte monolayer; listed as ARA
  Effect on the protective effect of adiponectin on podocyte permeability: blocked

B1: fAd: full-length adiponectin; in mice administered using an AAV vector (AAV2/8 CMV fAd virus) (protein, listed as Homo sapiens)
chain: MLLLGAVLLLLALPGHDQETTTQGPGVLLPLPKGACTGWMAGIPGHPGHNGAPGRDGRDGTPGEKGEKGDPGLIGPKGDIGETGVPGAEGPRGFPGIQGRKGEPGEGAYVYRSAFSVGLETYVTIPNMPIRFTKIFYNQQNHYDGSTGKFHCNIPGLYYFAYHITVYMKDVKVSLFKKDKAMLFTYDQYQENNVDQASGSVLLHLEVGDQVWLQVYGEGERNGLYADNDNDSTFTGFLLYHDTN
modifications: delivered via AAV2/8 CMV vector
Podocyte monolayer
  Permeability of albumin across a podocyte monolayer: reduced
Podocyte monolayer; listed as full length adiponectin
  Permeability of albumin across a podocyte monolayer: significantly reduced
[1]; fAd by AAV vector, 10 days
  Urine albumin/creatinine ratio (albuminuria): significantly decreased urine albumin/creatinine to the control values seen in WT mice
Ad−/− mice; fAd by AAV vector, 10 days
  Urinary levels of hydrogen peroxide: reduced
